Measurements from the NIST ThermoML archive (doi:10.1021/je301279x).
Numbers after ± are expanded uncertainties.

Experiments:
[1] = Drop volume
[2] = xn = mol fraction of the nth substance listed; settings: for surface tension liquid-gas: Drop volume; for mass density: 800 kPa, Liquid, Vibrating tube method

NCCO [2-aminoethan-1-ol]
[1]
Settings | surface tension liquid-gas [mN/m]
293.15 K | 48.48 ± 0.84
303.15 K | 47.64 ± 0.83
313.15 K | 46.88 ± 0.83

NCCO [2-aminoethan-1-ol] + O
[2]
Settings | mass density, 303.15 K [kg/m3] | mass density, 313.15 K [kg/m3] | mass density, 323.15 K [kg/m3] | mass density, 333.15 K [kg/m3] | surface tension liquid-gas, 303.15 K [mN/m] | surface tension liquid-gas, 313.15 K [mN/m] | surface tension liquid-gas, 323.15 K [mN/m] | surface tension liquid-gas, 333.15 K [mN/m]
x1 = 0.0687 | 1003.6 ± 6.2 | 999.4 ± 6.2 | 994.6 ± 6.1 | 989.1 ± 6.1 | 66.7 ± 2.9 | 65.2 ± 2.9 | 63.6 ± 2.8 | 61.6 ± 2.8
x1 = 0.1122 | 1008.2 ± 6 | 1003.3 ± 5.9 | 998.1 ± 5.9 | 992.3 ± 5.9 | 63.7 ± 2.8 | 62.4 ± 2.8 | 61 ± 2.8 | 59.5 ± 2.8
x1 = 0.1643 | 1013.3 ± 5.7 | 1007.8 ± 5.7 | 1002.1 ± 5.7 | 995.7 ± 5.6 | 61.5 ± 2.7 | 59.8 ± 2.7 | 58.4 ± 2.7 | 57 ± 2.7
x1 = 0.2277 | 1017.8 ± 5.4 | 1011.8 ± 5.4 | 1005.4 ± 5.4 | 998.7 ± 5.4 | 59.6 ± 2.7 | 58.1 ± 2.7 | 56.5 ± 2.7 | 55.1 ± 2.6
x1 = 0.3067 | 1021.3 ± 5.1 | 1014.6 ± 5.1 | 1007.8 ± 5.1 | 1000.6 ± 5.1 | 57.4 ± 2.6 | 56.1 ± 2.6 | 55 ± 2.6 | 53.6 ± 2.6
x1 = 0.4076 | 1022.6 ± 4.9 | 1015.5 ± 4.8 | 1008.2 ± 4.8 | 1000.6 ± 4.8 | 54.5 ± 2.6 | 53.6 ± 2.6 | 52.5 ± 2.5 | 51.2 ± 2.5

O [water]
[1]
Settings | surface tension liquid-gas [mN/m]
293.15 K | 72.56 ± 2
303.15 K | 70.9 ± 2
313.15 K | 69.81 ± 1.9
323.15 K | 67.72 ± 1.9
